Source: US20190059429A1, “SALT COMPOSITION INCLUDING SERINE” (NESTEC S.A., priority 2016, published 2019)

Assays:
[1] = Dissolution kinetics in water by online refractometry; assay type: physicochemical; conditions: 60 mL water, stirred 500 rpm, room temperature, particle size 100-200 μm, refractive index
Description: FIG. 1 Dissolution kinetics. The change in refractive index (n) was measured by online-refractometry in water over the time period 0 to 50 seconds. 0.56 g of pure NaCl (triangle); 2.58 g of (L-serine)2.sodium chloride co-crystals (diamond); a physical mixture of 2.02 g L-serine and 0.56 g NaCl (cross); and a 2.02 g of pure L-serine (star) were each added to 60 mL of water stirred (500 rpm) at room temperature. The particle size of the respective solids was standardized in the range 100-200 μm.
The rate of dissolution of a solid in a liquid may be measured by refractometry. A refractometer measures the extent to which light is refracted when it moves from air into a sample, thereby allowing the refractive index (n) of the sample to be measured. […] Accordingly, by monitoring the change in refractive index over time, the kinetic rate of dissolution of a solid can be determined. So that independent measurements of dissolution rate can be compared, the refractive index values may be normalised by expression as a percentage of the maximal value recorded in a particular experiment.
The dissolution behaviour of (L-serine)2.sodium co-crystals obtained by direct crystallisation from a saturated solution (Example 2) were tested by refractometry. In this experiment, test samples were added to 60 mL of water, and the extent of dissolution was measured while stirring at 500 rpm. […]

[2] = system: trained panellists; assay: Sensory evaluation of tablets by 11 trained panellists; assay type: in vivo; conditions: tablets 123.7 mg
Description: Bars coloured black denote a significant difference in a particular taste/sensory characteristic. Unshaded bars denote that there is no significant difference in the characteristic. A positive number represents an increased sensory response of the co-crystal compared to the physical mixture.
Tablets for sensory evaluation were prepared using a Romaco Kilian Styl'One single-stroke tablet press. […] The tablets were prepared with three compressions of 300 ms and an interval of 200 ms.
Each of the panellists received a tray with two tablets presented on plastic plates coded with random 3-digit numbers. The tablets had to be crunched with the front teeth and kept in mouth to dissolve slowly (method 1). Alternatively, tablets could be crunched with the front teeth and chewed constantly in the mouth until complete dissolution occurred (method 2).
Afterwards the panellists were asked to rate the taste of the tablets in respect of the following 12 categories: upfront saltiness (1), overall saltiness (2), sweetness (3), sourness (4), umami (5), friable (6), melting (7), overall persistence (8), saltiness persistence (9), sweetness persistence (10), sourness persistence (11), and tingling (12).

Compound | time to reach 90% dissolution [1] | salty taste perceived, co-crystal tablets vs L-serine/NaCl physical mix tablets ([2]; during and after consumption) | overall saltiness vs physical mix ([2]; FIG. 2) | saltiness persistence vs physical mix ([2]; FIG. 2) | upfront saltiness vs physical mix ([2]; FIG. 2)
N[C@@H](CO)C(=O)O.N[C@@H](CO)C(=O)O.[Cl-].[Na+] [(L-serine)2.sodium chloride co-crystals, (L-serine)2.sodium chloride] | around 25 seconds | significantly more salty | superior | superior | superior
[Cl-].[Na+] [NaCl, Sodium chloride, reference compound] | around 25 seconds |  |  |  | 
